Reference: patent publication EP3322687B1, “2-BENZYL-INDANONE COMPOUNDS AS ANTICANCER AGENT AND A PROCESS FOR PREPARATION THEREOF” (Council of Scientific and Industrial Research, priority 2015, dated 2017)

Tests used:
MCF-7 (Breast cancer) = assay: Sulforhodamine B cytotoxicity assay; assay type: cell-based; conditions: Homo sapiens, MCF7, 48 h, read-out: Human cancer cell lines IC50 MCF-7 (Breast cancer)
Method: (§1) The benzyl compounds were evaluated by Sulforhodamine B Assay as per reported method [Skehan etal., J. Natl. Cancer Inst.1990, 82, 1107]. The human cancer cell lines procured from National Cancer Institute, Frederick, U. S. A. were used in present study. Cells were grown in tissue culture flasks in complete growth medium (RPMI-1640 medium with 2 mM glutamine, pH 7.4 supplemented with 10% fetal bovine serum, 100 µg/ml streptomycin and 100 units/ml penicillin) in a carbon dioxide incubator (37°C, 5% CO2, 90% RH). The cells at subconfluent stage were harvested from the flask by treatment with trypsin (0.05% in PBS (pH 7.4) containing 0.02% EDTA). Cells with viability of more than 98%, as determined by trypan blue exclusion, were used for determination of cytotoxicity. The cell suspension required concentration of cells was prepared in complete growth medium. Stock solution of 2x10^-2 M of compounds were prepared in DMSO and further dilution was carried out complete growth medium containing 50µg/ml of gentamycin to obtained working test solution of required concentration. In vitro cytotoxicity against various human cancer cell lines was determined using 96-well cell culture plates. The 100µl of cell suspension was added to each well of the 96-well cell culture plates. The cells were allowed to grow in CO2 incubator (37°C, 5% CO2, 90% RH) for 24 hours. The test materials in complete growth medium (100 µl) were added after 24 hours incubation to the wells containing cell suspension. The plates were further incubated for 48 hours (37°C in an atmosphere of 5% CO2 and 90% relative humidity) in a carbon dioxide incubator after addition of test material and then the cell growth was stopped by gently layering trichloroacetic acid (50% TCA, 50 µl) on top of the medium in all the wells. The plates were incubated at 4°C for one hour to fix the cells attached to the bottom of the wells. The liquid of all the wells was gently pipetted out and discarded. The plates were washed five times with distilled water to remove TCA, growth medium low molecular weight metabolites, serum proteins etc. and air - dried. Cell growth was measured by staining with sulforhodamine B dye. The adsorbed dye was dissolved in Tris-HCl Buffer (100 µl/well, 0.01M, pH 10.4) and plates were gently stirred for 10 minutes on a mechanical stirrer. The optical density (OD) was recorded on ELISA reader at 540nm. Paclitaxel (Taxol), and 5-Fluorouracil were used as positive controls (Standard drugs).

T-47D (Breast cancer) = assay: Sulforhodamine B cytotoxicity assay; assay type: cell-based; conditions: Homo sapiens, T47D, 48 h, read-out: Human cancer cell lines IC50 T-47D (Breast cancer)
Method: as §1

[1] = In-vivo acute oral toxicity; set-up: species or system Swiss albino mice; conditions: for ALP / Albumin / Bilirubin / Body weight / Cholesterol / Creatinine / Haemoglobin / RBC / SGOT / SGPT / Serum Protein / Triglycerides / WBC: 7th day, Mean±SE, n=6
Method: In view of potent anti-cancer activity of compound 2 in in-vitro model, acute and sub-acute oral toxicity of the same was carried out in Swiss albino mice for its further development into drug product. Experiment was conducted in accordance with the Organization for Economic Cooperation and Development (OECD) test guideline No 423 (1987).
For the acute oral toxicity study, 30 mice (15 male and 15 female) were taken and divided into […] comprising 3 male and 3 female mice in each group weighing between 20-25 g. The animals were maintained at 22±5°C with humidity control and also on an automatic dark and light cycle of 12 hours. The animals were fed with the standard mice feed and provided ad libitum drinking water. Mice of group 1 (Group 1) were kept as control and animals of groups 2, 3, 4 and 5 (Groups II, III, IV & V) were kept as experimental. The animals were acclimatized for 7 days in the experimental environment prior to the actual experimentation. The test compound 2 was solubilized in dimethyl sulphoxide and then suspended in double distilled water (DDW) and was given at 5, 50, 300 and 1000mg/kg body weight to animals of groups 2, 3, 4 and 5 (Groups II, III, IV & V) respectively once orally. Control animals received only vehicle.
The animals were checked for mortality and any signs of ill health at hourly interval on the day of administration of drug and there after a daily general case side clinical examination was carried out including changes in skin, mucous membrane, eyes, occurrence of secretion and excretion and also responses like lachrymation, piloerection respiratory patterns etc. Also changes in gait, posture and response to handling were also recorded. In addition to observational study, body weights were recorded and blood and serum samples were collected from all the animals on 7th day of the experiment in acute oral toxicity. The samples were analysed for total RBC, WBC, differential leucocytes count, haemoglobin percentage and biochemical parameters like ALP, SGPT, SGOT, total cholesterol, triglycerides, creatinine, bilirubin, serum protein, tissue protein, malonaldehyde and reduced GSH activity. The animals were then sacrificed and were necropsed for any gross pathological changes. Weights of vital organs like liver, heart, kidney etc. were recorded. Table 7. Effect of compound 2 as a single acute oral dose at 5, 50, 300 and 1000 mg/kg on body weight, haematological and serum biochemical parameters in Swiss albino mice (Mean±SE; n=6; a, P<0.001 compared to control, 5, 50, 300, 1000 mg/kg)

COc1cc(C2c3c(cc(OC)c(OC)c3OC)C(=O)C2Cc2ccc3c(c2)OCO3)cc(OC)c1OC (stereo not drawn) [Compound 2, 2-(3",4"-methylenedioxybenzyl)-3-(3',4',5'-trimethoxyphenyl)-4,5,6-trimethoxy-indan-1-one]
IC50 (MCF-7 (Breast cancer)): 3 µM
IC50 (T-47D (Breast cancer)): < 1 µM
ALP change as compare to control groups ([1]; 1000 mg/kg body weight, single oral dose): significant changes
differential leucocytes counts ([1]; single acute oral dose at 5, 50, 300 and 1000 mg/kg body weight, n=6, compared to control (Figure 2)): Non significant changes
absolute and relative organ weight ([1]; single acute oral dose at 5, 50, 300 and 1000 mg/kg, n=6, compared to control (Figure 1)): Non significant changes
observational changes, morbidity and mortality ([1]; single acute oral dose, up to the dose level of 1000 mg/kg body weight): No observational changes, morbidity and mortality
ALP ([1]; single oral dose 5 mg/kg): 167.3±16.5 U/L
Albumin ([1]; single oral dose 5 mg/kg): 3.63 ± 0.28 g/dL
Bilirubin ([1]; single oral dose 5 mg/kg): 0.14 ± 0.07 mg/dL
Body weight ([1]; single oral dose 5 mg/kg): 23.97±0.64 gm
Cholesterol ([1]; single oral dose 5 mg/kg): 104.0 ± 6.7 mg/dL
Creatinine ([1]; single oral dose 5 mg/kg): 0.56 ± 0.10 mg/dL
Haemoglobin ([1]; single oral dose 5 mg/kg): 13.55±0.60 gm/dL
RBC ([1]; single oral dose 5 mg/kg): 5.93±0.39 million/mm3
SGOT ([1]; single oral dose 5 mg/kg): 12.24±1.18 U/L
SGPT ([1]; single oral dose 5 mg/kg): 15.74±1.03 U/L
Serum Protein ([1]; single oral dose 5 mg/kg): 1.07 ± 0.06 mg/mL
Triglycerides ([1]; single oral dose 5 mg/kg): 98.74 ± 3.11 mg/dL
WBC ([1]; single oral dose 5 mg/kg): 7.95±0.64 1000*/mm3
ALP ([1]; single oral dose 50 mg/kg): 191.6±27.6 U/L
Bilirubin ([1]; single oral dose 50 mg/kg): 0.09 ± 0.01 mg/dL
Body weight ([1]; single oral dose 50 mg/kg): 24.29±0.95 gm
Cholesterol ([1]; single oral dose 50 mg/kg): 120.3 ± 10.4 mg/dL
Creatinine ([1]; single oral dose 50 mg/kg): 0.69 ± 0.08 mg/dL
Haemoglobin ([1]; single oral dose 50 mg/kg): 13.06±0.82 gm/dL
RBC ([1]; single oral dose 50 mg/kg): 5.83±0.17 million/mm3
SGOT ([1]; single oral dose 50 mg/kg): 25.76±5.40 U/L
SGPT ([1]; single oral dose 50 mg/kg): 17.92±1.69 U/L
Serum Protein ([1]; single oral dose 50 mg/kg): 1.13 ± 0.07 mg/mL
Triglycerides ([1]; single oral dose 50 mg/kg): 74.95 ± 5.79 mg/dL
WBC ([1]; single oral dose 50 mg/kg): 7.99±0.55 1000*/mm3
ALP ([1]; single oral dose 300 mg/kg): 224.0±6.70 U/L
Albumin ([1]; single oral dose 300 mg/kg): 3.63 ± 0.28 g/dL
Body weight ([1]; single oral dose 300 mg/kg): 23.83±0.42 gm
Cholesterol ([1]; single oral dose 300 mg/kg): 116.5 ± 15.6 mg/dL
Creatinine ([1]; single oral dose 300 mg/kg): 0.76 ± 0.03 mg/dL
Haemoglobin ([1]; single oral dose 300 mg/kg): 10.90±1.11 gm/dL
RBC ([1]; single oral dose 300 mg/kg): 6.03±0.11 million/mm3
SGOT ([1]; single oral dose 300 mg/kg): 18.71±3.16 U/L
SGPT ([1]; single oral dose 300 mg/kg): 18.20±1.41 U/L
Serum Protein ([1]; single oral dose 300 mg/kg): 1.09 ± 0.06 mg/mL
Triglycerides ([1]; single oral dose 300 mg/kg): 104.94 ± 10.39 mg/dL
WBC ([1]; single oral dose 300 mg/kg): 8.13±0.64 1000*/mm3
ALP ([1]; single oral dose 1000 mg/kg): 234.3±44.5 U/L
Albumin ([1]; single oral dose 1000 mg/kg): 3.26 ± 0.30 g/dL
Bilirubin ([1]; single oral dose 1000 mg/kg): 0.12 ± 0.04 mg/dL
Body weight ([1]; single oral dose 1000 mg/kg): 23.41±0.16 gm
Creatinine ([1]; single oral dose 1000 mg/kg): 0.76 ± 0.09 mg/dL
Haemoglobin ([1]; single oral dose 1000 mg/kg): 12.29±0.53 gm/dL
RBC ([1]; single oral dose 1000 mg/kg): 6.10±0.27 million/mm3
SGOT ([1]; single oral dose 1000 mg/kg): 35.49±6.57 U/L
SGPT ([1]; single oral dose 1000 mg/kg): 11.97±1.67 U/L
Serum Protein ([1]; single oral dose 1000 mg/kg): 1.42 ± 0.16 mg/mL
Triglycerides ([1]; single oral dose 1000 mg/kg): 87.28 ± 4.39 mg/dL
WBC ([1]; single oral dose 1000 mg/kg): 8.57±0.76 1000*/mm3
toxicity in in-vivo acute oral toxicity ([1]; up to 300mg/kg): no toxicity
tolerability ([1]; up to the dose level of 1000 mg/kg body weight as a single acute oral dose): well tolerated
